Data on one compound can be found in patent publication US6469028B1, “Synthesis and use of retinoid compounds having negative hormone and/or anatgonist activities” (Allergan, Inc., priority 1995, dated 2002).

Assay [1] in a line: Example 3: recovery from preexisting retinoid toxicity (body weight). The assay is classed as in vivo, mice. The method, then: Groups of these same mice (n=5) were then treated topically either with vehicle or AGN 193109 in vehicle (4 ml/kg) daily for 3 consecutive days beginning on day 3. Mice were weighed on days 1-5 and on day 8. Body weights are expressed as the mean±SD. Means were compared statistically using an unpaired, two-tailed t-test. Differences were considered significant at P<0.05.

Assay [2] concerns MRP-8 expression in primary foreskin keratinocytes. Nature of the assay: Example 20: MRP-8 expression in keratinocytes (RT-PCR). Format: cell-based, human. The note with it: AGN 191183 10^−7 M or AGN 193109 10^−6 M, 3 days. An excerpt: Primary foreskin keratinocytes were isolated according to the procedure described by Nagpal et al. in J. Biol. Chem. 270:923 (1995) and cultured in keratinocyte growth medium (KGM) that was purchased from Clonetics. […] The mRNA was reverse transcribed into cDNA which then served as the template in a PCR amplification protocol using primers specific for either the glyceraldehyde phosphate dehydrogenase (GAPDH) housekeeping gene or MRP-8. The GAPDH primers had the sequences [NT] ID NO:6) and [NT] ID NO:7). The MRP-8 primers had the sequences [NT] ID NO:8) and [NT] ID NO:9). An aliquot from the MRP-8 amplification reaction (10 μl) was removed after every cycle of PCR amplification starting from 12 cycles and ending at 21 cycles. Similarly, an aliquot of the GAPDH amplification reaction was removed after every PCR cycle starting at 15 cycles and ending at 24 cycles. […] The staining intensity of the amplification products served as a quantitative measure of the amount of starting MRNA specific for the given primer set.

Assay [3] concerns RAR-γ-VP-16 with ER-RXR-α.
The next assay deals with T1, RARα (Homo sapiens, UniProt P10276).
T1 sequence (P10276 1-462): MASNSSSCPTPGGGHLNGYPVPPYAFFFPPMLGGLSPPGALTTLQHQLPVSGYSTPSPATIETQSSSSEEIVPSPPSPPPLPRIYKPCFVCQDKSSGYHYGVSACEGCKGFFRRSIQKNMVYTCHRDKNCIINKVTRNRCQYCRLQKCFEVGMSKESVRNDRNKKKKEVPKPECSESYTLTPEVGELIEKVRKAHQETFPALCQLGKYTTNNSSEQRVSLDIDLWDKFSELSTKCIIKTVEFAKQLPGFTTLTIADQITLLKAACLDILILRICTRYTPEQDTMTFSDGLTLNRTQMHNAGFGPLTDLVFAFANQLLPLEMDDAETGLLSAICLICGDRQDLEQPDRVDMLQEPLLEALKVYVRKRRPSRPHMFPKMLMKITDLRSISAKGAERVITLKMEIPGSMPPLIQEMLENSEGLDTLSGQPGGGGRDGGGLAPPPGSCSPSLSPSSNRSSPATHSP
The assay can be described thus: Example 8: protease protection analysis. The assay is classed as biochemical. Also noted: host or cells: TNT-coupled reticulocyte lysate in vitro transcription-translation. The settings on record: ATRA and AGN 193109 100 nM, AGN 193583 1000 nM; trypsin 25, 50 or 100 μg/ml, 10 minutes. The method, then:
A plasmid constructed in the vector pGEM3Z (Pharmacia) and containing the RAR-α cDNA (Giguere et al. Nature 330:624 (1987)), was used in connection with the TNT-coupled reticulocyte lysate in vitro transcription-translation system (Promega) to prepare [^35S]-methionine labeled RAR-α. Limited proteolytic digestion of the labeled protein RAR-α was carried out according to the method described by Keidel et al. in Mol. Cell. Biol. 14:287 (1994). […] After ligand binding, 1 μl of appropriately concentrated trypsin was added to the mixture to give final concentrations of 25, 50 or 100 μg/ml. Samples were incubated at room temperature for 10 minutes and trypsin digestion stopped by addition of SDS-sample buffer. Samples were subjected to polyacrylamide gel electrophoresis and autoradiographed according to standard procedures.

The mark [4] stands for this setting: topical AGN 191183 0.13 mg/kg/d days 1-2, then topical AGN 193109 days 3-5, mean±SD.

Regarding `Cc1ccc(C2=CCC(C)(C)c3ccc(C#Cc4ccc(C(=O)O)cc4)cc32)cc1` [Compound 60, 4-[(5,6-dihydro-5,5-dimethyl-8-(4-methylphenyl)-2-naphthalenyl)ethynyl]benzoic acid], the “body weight relative to vehicle treatment” value in assay [1] (after AGN 191183-induced weight loss, t-test, P<0.05) is “significantly increased body weight relative to vehicle treatment on days 4 and 5”. Besides, in assay [1] (setting [4]), the “Body Weight (g) DAY 1” value amounted to 23.9 ± 1.0 g, the “Body Weight (g) DAY 2” value is given as 23.5 ± 1.2 g, the “Body Weight (g) DAY 3” value amounted to 21.4 ± 0.6 g and the “Body Weight (g) DAY 4” value is reported as 22.2 ± 0.7 g. Moreover, in assay [1] (setting [4]), the “Body Weight (g) DAY 5” value was determined as 22.8 ± 0.8 g and the “Body Weight (g) DAY 8” value was 25.0 ± 1.1 g. For the same compound, in assay [2], the “MRP-8 mRNA expression” value is recorded as “repressed MRP8 expression”. Moreover, the luciferase activity readings entry in assay [3] (AGN 193109 at 10^−8−10^−6 M (maximal inhibition)) is recorded as “approximately 16,000 rlu”. Also, the “concentration of maximal inhibition of luciferase activity” value in assay [3] (cells cotransfected with ER-RXR-α and RAR-γ-VP-16) is on record as “approximately 10^−8 M”. Also, the “luciferase activity of triple transfectants” value in assay [3] (no other retinoid added, 18 hours) is reported as “dose dependent decrease in luciferase activity”. On RARα, the “pattern of trypsin sensitivity of labeled RAR-α after prebinding” value was “a protease protection pattern that was indistinguishable from that produced by prebinding of ATRA”.
